In ChEMBL document CHEMBL4602621, “Optimization of cyclic sulfamide derivatives as 11β-hydroxysteroid dehydrogenase 1 inhibitors for the potential treatment of ischemic brain injury” (Bioorg Med Chem Lett, 2020):
Active and inactive are the calls of the source. The rule behind the calls is not given here.

Experiments:
[1] = target: 11-beta-hydroxysteroid dehydrogenase 1 (Mus musculus, UniProt P50172); assay: Inhibition of mouse 11beta-HSD1 expressed in CHOK1 cells using XL665-labeled cortisol as substrate measured after 24 hrs by HTRF assay; format: cell-based, CHO-K1
[2] = target: 11-beta-hydroxysteroid dehydrogenase 1 (Mus musculus) (UniProt P50172); assay: In vivo inhibition of 11 beta-HSD1 in brain of mouse at 20 mg/kg, po relative to control; format: functional, organism-based
[3] = target: 11-beta-hydroxysteroid dehydrogenase 1 (Mus musculus) (UniProt P50172); assay: In vivo inhibition of 11 beta-HSD1 in brain of mouse at 30 mg/kg, po relative to control; format: functional, organism-based
[4] = target: 11-beta-hydroxysteroid dehydrogenase 1 (Homo sapiens, UniProt P28845); assay: Inhibition of human 11beta-HSD1 expressed in CHOK1 cells using XL665-labeled cortisol as substrate measured after 24 hrs by HTRF assay; format: cell-based, CHO-K1
[5] = target: 11-beta-hydroxysteroid dehydrogenase 1 (Mus musculus) (UniProt P50172); assay: Ex vivo inhibition of 11 beta-HSD1 in brain of iv dosed mouse by measuring cortisol amount after 1 hr by ELISA; format: functional, organism-based
[6] = Drug level in brain of mouse at 10 mg/kg, ip administered as single dose measured at 0.5 hrs; format: ADME, organism-based; details: read-out: Drug uptake
[7] = Drug level in brain of mouse at 10 mg/kg, ip administered as single dose measured at 3 hrs; format: ADME, organism-based; details: read-out: Drug uptake
[8] = Drug level in plasma of mouse at 10 mg/kg, ip administered as single dose measured at 0.5 hrs; format: ADME, organism-based
[9] = Drug level in plasma of mouse at 10 mg/kg, ip administered as single dose measured at 3 hrs; format: ADME, organism-based
[10] = Ratio of drug concentration in brain to plasma of mouse at 10 mg/kg, ip administered as single dose measured at 0.5 hrs; format: ADME, organism-based; details: read-out: BPR
[11] = Ratio of drug concentration in brain to plasma of mouse at 10 mg/kg, ip administered as single dose measured at 3 hrs; format: ADME, organism-based; details: read-out: BPR
[12] = test system: Mus musculus; assay: (§1) Neuroprotective activity in mouse model of middle cerebral artery occlusion-induced ischemia-reperfusion injury assessed as cerebral infarct volume at 10 mg/kg, ip administered twice at 1 to 5 hrs post induction of ischemia followed by 24 hrs of reperfusion by TTC staining based assay (reference value: 90.3 +/- 6 mm3); format: functional
[13] = test system: Mus musculus; assay: as §1, with “30” for “10”; format: functional
[14] = test system: Mus musculus; assay: Neuroprotective activity in mouse model of middle cerebral artery occlusion-induced ischemia-reperfusion injury assessed as reduction in cerebral infarct area at 10 to 30 mg/kg, ip administered twice at 1 to 5 hrs post induction of ischemia followed by 24 hrs of reperfusion by TTC staining based assay; format: functional, organism-based

Chain of 11-beta-hydroxysteroid dehydrogenase 1 (Mus musculus, UniProt P50172) (P50172 whole entry): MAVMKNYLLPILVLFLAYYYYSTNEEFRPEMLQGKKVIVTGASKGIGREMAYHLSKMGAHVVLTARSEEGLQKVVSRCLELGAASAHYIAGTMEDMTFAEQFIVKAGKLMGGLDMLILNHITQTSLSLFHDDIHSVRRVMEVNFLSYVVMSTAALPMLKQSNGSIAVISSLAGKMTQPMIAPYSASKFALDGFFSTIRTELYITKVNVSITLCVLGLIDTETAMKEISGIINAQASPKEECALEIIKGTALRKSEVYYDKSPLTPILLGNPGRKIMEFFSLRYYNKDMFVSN
Chain of 11-beta-hydroxysteroid dehydrogenase 1 (Mus musculus) (P50172 whole entry, looked up): as the sequence (P50172 whole entry) above
Chain of 11-beta-hydroxysteroid dehydrogenase 1 (Homo sapiens, UniProt P28845) (P28845 whole entry): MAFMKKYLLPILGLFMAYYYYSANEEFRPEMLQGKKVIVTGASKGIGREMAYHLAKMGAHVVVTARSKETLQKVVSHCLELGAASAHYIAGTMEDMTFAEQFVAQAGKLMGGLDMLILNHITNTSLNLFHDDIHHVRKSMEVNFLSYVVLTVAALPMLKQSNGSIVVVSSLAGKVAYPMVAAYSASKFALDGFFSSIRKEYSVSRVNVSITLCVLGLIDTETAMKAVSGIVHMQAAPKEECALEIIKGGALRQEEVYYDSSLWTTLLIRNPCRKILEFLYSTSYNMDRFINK

Compound | IC50 [1] [nM] | inhibition [2] [%] | further results
Cc1cc(Cl)c(N2CC(C)CN(CC(=O)NC3C4CC5CC3CC(C(N)=O)(C5)C4)S2(=O)=O)c(Cl)c1 (stereo not given) | 3.7 | 69 | 
CC1CN(CC(=O)NC2C3CC4CC2CC(C(N)=O)(C4)C3)S(=O)(=O)N(c2c(Cl)cc(Cl)cc2Cl)C1 (stereo not given) | 2 |  | inhibition [3]: 66%
CC1CN(CC(=O)NC2C3CC4CC2CC(C(N)=O)(C4)C3)S(=O)(=O)N(c2c(Cl)cc(-c3ccccc3)cc2Cl)C1 (stereo not given) | 174 |  | 
CC1CN(CC(=O)NC2C3CC4CC2CC(C(N)=O)(C4)C3)S(=O)(=O)N(c2c(Cl)cc(Br)cc2Cl)C1 (stereo not given) |  | 41.1 | 
CC(C)C1CN(CC(=O)NC2C3CC4CC2CC(C(N)=O)(C4)C3)S(=O)(=O)N(c2c(Cl)cc(C(F)(F)F)cc2Cl)C1 (stereo not given) | 2800 |  | 
CC1CN(CC(=O)NC2C3CC4CC2CC(C(N)=O)(C4)C3)S(=O)(=O)N(c2c(Cl)cc(-c3ccco3)cc2Cl)C1 (stereo not given) | 68 |  | 
CC1CN(CC(=O)NC2C3CC4CC2CC(C(N)=O)(C4)C3)S(=O)(=O)N(c2ccccn2)C1 (stereo not given) | 1210 |  | 
CCC1CN(CC(=O)NC2C3CC4CC2CC(C(N)=O)(C4)C3)S(=O)(=O)N(c2c(Cl)cc(C(F)(F)F)cc2Cl)C1 (stereo not given) | 695 |  | 
CC1CN(CC(=O)NC2C3CC4CC2CC(C(N)=O)(C4)C3)S(=O)(=O)N(c2c(Cl)cc(C(F)(F)F)cc2Cl)C1 (stereo not given) | 1 | 82 | IC50 [4]: 1 nM; inhibition [5]: Dose-dependent effect; concentration at 0.5 h [6]: 1780 ng/mL; concentration at 3 h [7]: 670 ng/mL; concentration at 0.5 h [8]: 4770 ng/mL; concentration at 3 h [9]: 1310 ng/mL; Kp at 0.5 h [10]: 0.38; Kp at 3 h [11]: 0.53; Activity [12]: 66.2 mm3; Activity [13]: 59 mm3; Activity [14]: Active
CC1CN(CC(=O)NC2C3CC4CC2CC(C(N)=O)(C4)C3)S(=O)(=O)N(c2ccc(C(F)(F)F)cn2)C1 (stereo not given) | 940 |  | 
NC(=O)C12CC3CC(C1)C(NC(=O)CN1CCCN(c4c(Cl)cc(C(F)(F)F)cc4Cl)S1(=O)=O)C(C3)C2 (stereo not given) |  | 45.8 | 
